This note sets out measurements from the supplement of paper PMC4862054.

Common to all, as to details: incubation time: 72 h
Assay [1] has as its system BT-549. Nature of the assay: normalised response (% of control), CellTiter-Glo; higher = more viable cells (100 = DMSO, 0 = benzethonium chloride kill control). An outline of the steps: (§1)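 In 384-well plates holding compound at 5 concentrations in 10-fold steps over a 10,000-fold range specific to each compound, breast cancer cell lines were seeded as 20 µl suspension and incubated 72 h. CellTox Green fluorescence was measured at 485/520 nm, after which CellTiter-Glo luminescence was measured following 10 min at room temperature. Plate signals were normalised to 0.1 % DMSO (100) and a positive kill control (0), and each value is the normalised signal at a single concentration.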
In general terms: ATP-based viability assays read luminescence as a measure of living cells.

Assay [2] deals with CAL-85-1. The description is as above. An outline of the steps: as §1
A further assay deals with MCF-10A. Described as above. An outline of the steps: as §1
A further assay has as its system BT-474. As to the kind of experiment: normalised viability (% of control), CellTiter-Blue; higher = more viable cells (about 100 = DMSO control). An outline of the steps:
(§2)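 After 72 h on compound-loaded 384-well plates, breast cancer cell lines received 2.5 µl CellTiter-Blue reagent for 2 h at 37 °C. Fluorescence at 560/590 nm was scaled per plate so that vehicle was 100 and a positive kill control was 0. The value stands for normalised viability at a single listed concentration of the series.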
Background: The colour change of resazurin is a common sign of viable cells or microbes.

In assay [3] the test system is BT-549. The assay is described as above. An outline of the steps: as §2
Another assay relates to CAL-120. The assay is described as above. An outline of the steps:
as §2

For a further assay, the system named is CAL-148. The description is as above. An outline of the steps: as §2
In the next assay the test system is CAL-51. Described as above. An outline of the steps: as §2
The test system of assay [4] is CAL-85-1. The assay is described as above. An outline of the steps: as §2
In a further assay the test system is DU-4475. The description is as above. An outline of the steps:
as §2

A further assay deals with HCC1143. Described as above. An outline of the steps:
as §2

For the next assay, the system named is HCC1599. Described as above. An outline of the steps:
as §2

In another assay the test system is HCC1937. The assay is described as above. An outline of the steps: as §2
Another assay concerns HDQ-P1. The description is as above. An outline of the steps: as §2
Another assay relates to Hs578T. The description is as above. An outline of the steps:
as §2

In the next assay the test system is MDA-MB-231. The description is as above. An outline of the steps:
as §2

A further assay concerns MDA-MB-436. The assay is described as above. An outline of the steps:
as §2

The next assay concerns MDA-MB-453. The description is as above. An outline of the steps:
as §2

The subject of the next assay is MDA-MB-468. The assay is described as above. An outline of the steps: as §2
In another assay the test system is MFM-223. Described as above. An outline of the steps: as §2
The subject of a further assay is SK-BR-3. Described as above. An outline of the steps: as §2

The structures appear in SMILES notation.

Consider `CN1CC[C@H](c2c(O)cc(O)c3c(=O)cc(-c4ccccc4Cl)oc23)[C@H](O)C1` [Alvocidib] (1000 nM), for which the normalised response with BT-549 [1] stood at 5.76%; in the assay with CAL-85-1 [2], 8.63%; with MCF-10A it was 11.2%.

Regarding `Nc1nc(Cl)nc2c1ncn2[C@H]1C[C@H](O)[C@@H](CO)O1` [Cladribine] (100 nM), the normalised response amounted to 77.7% with BT-549 [1], 104% in the assay on CAL-85-1 [2] and 107% with MCF-10A.

Turning to `Nc1ccn([C@@H]2O[C@H](CO)[C@@H](O)[C@@H]2O)c(=O)n1` [Cytarabine] (1000 nM), the normalised response in the assay with BT-549 [1] turned out to be 61.9%; with CAL-85-1 [2], 94.5%; in the assay with MCF-10A it was 104%.

Take `Cc1c2oc3c(C)ccc(C(=O)N[C@@H]4C(=O)N[C@H](C(C)C)C(=O)N5CCC[C@H]5C(=O)N(C)CC(=O)N(C)[C@@H](C(C)C)C(=O)O[C@@H]4C)c3nc-2c(C(=O)N[C@@H]2C(=O)N[C@H](C(C)C)C(=O)N3CCC[C@H]3C(=O)N(C)CC(=O)N(C)[C@@H](C(C)C)C(=O)O[C@@H]2C)c(N)c1=O` [Dactinomycin] (100 nM): the values for the normalised response in the assay on BT-549 [1], in the assay with CAL-85-1 [2] and with MCF-10A were 6.05%, 6.91% and 5.33%, respectively.

For the compound `COc1cccc2c1C(=O)c1c(O)c3c(c(O)c1C2=O)C[C@@](O)(C(=O)CO)C[C@@H]3O[C@H]1C[C@H](N)[C@H](O)[C@H](C)O1` [Doxorubicin] (100 nM), the normalised response in the assay on BT-549 [1] is 78.3%; in the assay on CAL-85-1 [2], 103%; in the assay on MCF-10A, 106%.

For `Cc1ccc(F)c(NC(=O)Nc2ccc(-c3cccc4[nH]nc(N)c34)cc2)c1` [Linifanib], the normalised viability was found to be 113% with BT-474 (1 nM); 108% in the assay on BT-474 (100 nM); 123% in the assay on BT-474 (1000 nM); 91.5% in the assay on BT-549 [3] (1 nM); 96% in the assay with BT-549 [3] (100 nM); 97.5% in the assay with BT-549 [3] (1000 nM). For the same compound, the normalised viability with CAL-120 (1 nM) stood at 90.8%; in the assay with CAL-120 (100 nM) it was 91.2%; with CAL-120 (1000 nM), 109%; in the assay on CAL-148 (0.3 nM), 93%; with CAL-148 (3 nM), 96.3%; with CAL-148 (10 nM) it was 94.4%. Moreover, the normalised viability in the assay on CAL-51 (0.3 nM) amounted to 106%; in the assay with CAL-51 (3 nM) it was 105%; in the assay on CAL-51 (10 nM), 107%; in the assay on CAL-85-1 [4] (0.3 nM), 93.9%; in the assay on CAL-85-1 [4] (3 nM), 87.9%; in the assay with CAL-85-1 [4] (10 nM), 98.8%. Moreover, the normalised viability amounted to 103% in the assay with DU-4475 (0.3 nM); 93.6% in the assay on DU-4475 (3 nM); 108% in the assay on DU-4475 (10 nM); 112% in the assay with HCC1143 (1 nM); 89% in the assay on HCC1143 (100 nM); 93.9% in the assay on HCC1143 (1000 nM). Further, the normalised viability worked out at 109% with HCC1599 (1 nM); 108% with HCC1599 (100 nM); 109% in the assay on HCC1599 (1000 nM); 147% with HCC1937 (1 nM); 93.6% in the assay on HCC1937 (100 nM); 111% in the assay with HCC1937 (1000 nM). Further, the normalised viability with HDQ-P1 (0.3 nM) was 107%; with HDQ-P1 (3 nM) it was 111%; with HDQ-P1 (10 nM) it was 103%; with Hs578T (1 nM), 114%; in the assay on Hs578T (100 nM) it was 101%; in the assay with Hs578T (1000 nM), 91.3%. Also, the normalised viability came out at 115% with MDA-MB-231 (1 nM); 101% with MDA-MB-231 (100 nM); 109% in the assay on MDA-MB-231 (1000 nM); 108% in the assay with MDA-MB-436 (1 nM); 110% in the assay on MDA-MB-436 (100 nM); 120% in the assay on MDA-MB-436 (1000 nM). In addition, the normalised viability with MDA-MB-453 (0.3 nM) came to 111%; with MDA-MB-453 (3 nM) it was 111%; with MDA-MB-453 (10 nM), 104%; in the assay on MDA-MB-468 (1 nM) it was 182%; in the assay with MDA-MB-468 (100 nM) it was 111%; in the assay on MDA-MB-468 (1000 nM), 104%. The normalised viability was determined as 101% in the assay with MFM-223 (1 nM); 96.6% in the assay on MFM-223 (100 nM); 98.4% with MFM-223 (1000 nM); 117% in the assay on SK-BR-3 (1 nM); 112% in the assay with SK-BR-3 (100 nM); 123% in the assay on SK-BR-3 (1000 nM).

`Cc1ccc(F)c(NC(=O)Nc2ccc(-c3cccc4[nH]nc(N)c34)cc2)c1` [Linifanib] (100 nM): the normalised response stood at 103% with BT-549 [1], 100% in the assay with CAL-85-1 [2] and 105% with MCF-10A.

Regarding `S=c1[nH]cnc2nc[nH]c12` [Mercaptopurine] (1000 nM), the normalised response in the assay on BT-549 [1] was 103%; in the assay with CAL-85-1 [2], 92.6%; with MCF-10A, 94.2%.

As for `Clc1ccc(C(c2ccccc2Cl)C(Cl)Cl)cc1` (centres undefined) [Mitotane], the normalised viability with BT-474 (10 nM) is 118%; in the assay on BT-474 (1000 nM) it was 108%; in the assay on BT-474 (10000 nM), 130%; with BT-549 [3] (10 nM) it was 83%; with BT-549 [3] (1000 nM) it was 93%; in the assay on BT-549 [3] (10000 nM), 102%. Further, the normalised viability with CAL-120 (10 nM) was found to be 80.8%; with CAL-120 (1000 nM), 87.8%; in the assay on CAL-120 (10000 nM) it was 86%; with CAL-148 (3 nM) it was 89.2%; in the assay on CAL-148 (30 nM) it was 94.2%; with CAL-148 (100 nM) it was 95.7%. The normalised viability with CAL-51 (3 nM) was determined as 117%; with CAL-51 (30 nM), 106%; in the assay on CAL-51 (100 nM) it was 107%; in the assay with CAL-85-1 [4] (3 nM), 92.6%; with CAL-85-1 [4] (30 nM), 86.2%; in the assay on CAL-85-1 [4] (100 nM), 101%. The normalised viability in the assay on DU-4475 (3 nM) was 109%; with DU-4475 (30 nM), 87.5%; in the assay with DU-4475 (100 nM), 93.9%; in the assay on HCC1143 (10 nM), 82.9%; in the assay on HCC1143 (1000 nM), 81.2%; with HCC1143 (10000 nM) it was 91.4%. Besides, the normalised viability in the assay on HCC1599 (10 nM) is 97%; in the assay with HCC1599 (1000 nM), 88.2%; in the assay with HCC1599 (10000 nM) it was 97.1%; in the assay with HCC1937 (10 nM), 79.9%; in the assay on HCC1937 (1000 nM) it was 91.1%; with HCC1937 (10000 nM), 79.4%. In addition, the normalised viability in the assay with HDQ-P1 (3 nM) came out at 117%; in the assay with HDQ-P1 (30 nM) it was 102%; with HDQ-P1 (100 nM) it was 100%; with Hs578T (10 nM), 96.6%; in the assay with Hs578T (1000 nM), 86.7%; with Hs578T (10000 nM), 107%. Further, the normalised viability with MDA-MB-231 (10 nM) was 85.4%; in the assay on MDA-MB-231 (1000 nM) it was 94.8%; with MDA-MB-231 (10000 nM) it was 119%; in the assay on MDA-MB-436 (10 nM), 88.9%; in the assay on MDA-MB-436 (1000 nM), 106%; in the assay on MDA-MB-436 (10000 nM), 90.9%. The normalised viability came out at 117% with MDA-MB-453 (3 nM); 94.6% in the assay on MDA-MB-453 (30 nM); 103% in the assay on MDA-MB-453 (100 nM); 108% in the assay with MDA-MB-468 (10 nM); 102% with MDA-MB-468 (1000 nM); 102% with MDA-MB-468 (10000 nM). Further, the normalised viability in the assay on MFM-223 (10 nM) turned out to be 90.3%; in the assay on MFM-223 (1000 nM) it was 96%; in the assay with MFM-223 (10000 nM), 87.9%; in the assay on SK-BR-3 (10 nM), 105%; with SK-BR-3 (1000 nM), 104%; in the assay with SK-BR-3 (10000 nM) it was 82.3%.
